42 molecules from ChEMBL document CHEMBL3880383, “2-oxo-1-pyrrolidine derivative and its pharmaceutical uses” (2004) can be followed below.

Assay [1] deals with Synaptic vesicle glycoprotein 2A (Rattus norvegicus, UniProt Q02563). Nature of the assay: Displacement of [3H]-2-[4-(3-azidophenyl)-2-oxo-1-pyrrolidinyl]butanamide from SV2A levetiracetam binding site in Sprague-Dawley rat cerebral cortex membranes after 120 mins by liquid scintillation counting method. Further details: species or system Membrane. In general terms: Loss of bound radioactivity is the signal in a displacement assay; it reports binding, not function.

Assay [2] concerns Mus musculus. Kind of assay: Anticonvulsant activity in ip dosed sound susceptible DBA mouse model assessed as protection against audiogenic seizure-induced wild running, clonic and tonic convulsion administered 60 mins prior to induction of audiogenic seizures measured for 30 secs. Format: functional.
[3] abbreviates: Mus musculus, DBA, ip, read-out: ED50.

As usually defined, the Ki is a dissociation constant, usually derived from enzyme kinetics or from competition with a known ligand. A lower Ki goes with tighter binding. Broadly, the ED50 is the dose that gives a 50% effect, or the effect in half of the subjects.

Chain of Synaptic vesicle glycoprotein 2A (Q02563 whole entry): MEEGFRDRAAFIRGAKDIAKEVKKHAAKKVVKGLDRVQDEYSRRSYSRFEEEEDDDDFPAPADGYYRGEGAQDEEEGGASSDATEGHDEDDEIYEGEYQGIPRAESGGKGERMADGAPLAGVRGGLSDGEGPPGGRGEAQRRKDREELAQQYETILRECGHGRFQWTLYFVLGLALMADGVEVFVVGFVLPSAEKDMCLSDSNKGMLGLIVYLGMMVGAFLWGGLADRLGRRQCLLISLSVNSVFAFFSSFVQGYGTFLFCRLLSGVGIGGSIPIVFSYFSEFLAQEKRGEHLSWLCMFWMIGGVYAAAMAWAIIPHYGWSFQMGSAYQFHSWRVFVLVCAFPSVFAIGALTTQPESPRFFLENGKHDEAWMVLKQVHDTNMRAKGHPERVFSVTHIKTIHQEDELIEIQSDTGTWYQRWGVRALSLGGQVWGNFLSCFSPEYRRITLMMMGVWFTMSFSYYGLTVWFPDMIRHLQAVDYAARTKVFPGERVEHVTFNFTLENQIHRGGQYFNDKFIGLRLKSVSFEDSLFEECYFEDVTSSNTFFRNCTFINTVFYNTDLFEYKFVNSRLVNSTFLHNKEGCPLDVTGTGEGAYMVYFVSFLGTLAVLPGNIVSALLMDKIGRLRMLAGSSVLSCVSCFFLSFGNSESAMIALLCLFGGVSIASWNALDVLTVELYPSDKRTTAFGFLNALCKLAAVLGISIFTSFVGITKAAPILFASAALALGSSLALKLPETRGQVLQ

Take `CCCC1CC(=O)N(C(C)C(N)=O)C1` (centres undefined): the Ki in assay [1] is ≤ 1000 nM.

With `CCC(C(N)=O)N1CC(CS(=O)(=O)c2ccccc2)CC1=O` (centres undefined), the Ki in assay [1] is ≤ 1000 nM. As to `CC[C@@H](C(N)=O)N1C[C@@H](C=C(Br)Br)CC1=O`, in assay [2] (setting [3]), the ED50 stood at 100 µmol/kg. Also, in assay [1], the Ki is ≤ 1000 nM. For the molecule `CC[C@@H](C(N)=O)N1CC(CCl)CC1=O` (some centres undefined), in assay [2] (setting [3]), the ED50 was determined as 100 µmol/kg. Moreover, in assay [1], the Ki is ≤ 1000 nM. The matching figures for `CCC(C(N)=O)N1CC(c2ccc(Cl)cc2Cl)CC1=O` (centres undefined): 100 µmol/kg and ≤ 1000 nM. The matching figures for `CC[C@@H](C(N)=O)N1CC(COS(=O)(=O)c2ccc(C)cc2)CC1=O` (some centres undefined): 100 µmol/kg and ≤ 1000 nM. For the molecule `CC[C@@H](C(N)=O)N1CC(CC(C)I)CC1=O` (some centres undefined), the ED50 in assay [2] (setting [3]) came to 100 µmol/kg. For the same molecule, the inhibitory constant (Ki) in assay [1] is ≤ 1000 nM. With `CC[C@@H](C(N)=O)N1CC(c2cc(Br)cc(Br)c2)CC1=O` (some centres undefined), the ED50 in assay [2] (setting [3]) was found to be 100 µmol/kg. Also, in assay [1], the Ki was ≤ 1000 nM. As for `CC[C@@H](C(N)=O)N1CC(CI)CC1=O` (some centres undefined), in assay [2] (setting [3]), the ED50 worked out at 100 µmol/kg. Also, the Ki in assay [1] was ≤ 1000 nM. As for `CC[C@@H](C(N)=O)N1CC(CBr)CC1=O` (some centres undefined), the ED50 in assay [2] (setting [3]) was determined as 100 µmol/kg. Also, in assay [1], the inhibition constant Ki was ≤ 1000 nM. The matching figures for `C=CCC1CC(=O)N([C@@H](CC)C(N)=O)C1` (some centres undefined): 100 µmol/kg and ≤ 1000 nM. In the case of `CC[C@@H](C(N)=O)N1CC(CCCc2ccccc2)CC1=O` (some centres undefined), the ED50 in assay [2] (setting [3]) amounted to 100 µmol/kg. The Ki in assay [1] is ≤ 1000 nM. In the same order, the values of `CCC(C(N)=O)N1CC(C#CBr)CC1=O` (centres undefined) are 100 µmol/kg and ≤ 1000 nM.

In the case of `CC[C@@H](C(N)=O)N1CC(c2ccc(N=[N+]=[N-])cc2)CC1=O` (some centres undefined), the ED50 in assay [2] (setting [3]) turned out to be 100 µmol/kg. In addition, in assay [1], the Ki is ≤ 1000 nM. With `CC[C@@H](C(N)=O)N1CC(c2cccc(OC)c2)CC1=O` (some centres undefined), the Ki in assay [1] was ≤ 1000 nM. For `CC[C@@H](C(N)=O)N1CC(c2ccccc2OC)CC1=O` (some centres undefined), in assay [1], the Ki was ≤ 1000 nM. On to `CCC(C(N)=O)N1CC(C=C(Br)Br)CC1=O` (centres undefined), for which the ED50 in assay [2] (setting [3]) amounted to 100 µmol/kg. Moreover, the Ki in assay [1] was ≤ 1000 nM.

Consider `CCC(C(N)=O)N1CC(c2cccc(Cl)c2)CC1=O` (centres undefined), for which, in assay [2] (setting [3]), the median effective dose (ED50) was determined as 100 µmol/kg. Further, in assay [1], the Ki is ≤ 1000 nM. With `CC[C@@H](C(N)=O)N1CC(c2ccc(-c3ccccc3)cc2)CC1=O` (some centres undefined), the Ki in assay [1] is ≤ 1000 nM. Regarding `CC[C@@H](C(N)=O)N1CC(CO[N+](=O)[O-])CC1=O` (some centres undefined), in assay [2] (setting [3]), the ED50 was found to be 100 µmol/kg. The Ki in assay [1] was ≤ 1000 nM.

On to `CCC(C(N)=O)N1CC(c2ccccc2C(F)(F)F)CC1=O` (centres undefined), for which the Ki in assay [1] is ≤ 1000 nM. With `CC[C@@H](C(N)=O)N1CC(CSC)CC1=O` (some centres undefined), the ED50 in assay [2] (setting [3]) turned out to be 100 µmol/kg. The Ki in assay [1] is ≤ 1000 nM.

Consider `CC[C@H](C(N)=O)N1CC(C=C(Cl)Cl)CC1=O` (some centres undefined), for which the ED50 in assay [2] (setting [3]) is 100 µmol/kg. The Ki in assay [1] was ≤ 1000 nM.

As to `CCC(C(N)=O)N1CC(/C=C\F)CC1=O` (centres undefined), the ED50 in assay [2] (setting [3]) turned out to be 100 µmol/kg. The Ki in assay [1] is ≤ 1000 nM. For `C=CCC(C(N)=O)N1CC(CCC)CC1=O` (centres undefined), the Ki in assay [1] is ≤ 1000 nM. Turning to `CCCC(CN[C@@H](CC)C(N)=O)CC(=O)OC(C)C` (some centres undefined), in assay [2] (setting [3]), the ED50 was 100 µmol/kg. In the case of `CCC(C(N)=O)N1CC(c2nccs2)CC1=O` (centres undefined), the ED50 in assay [2] (setting [3]) came to 100 µmol/kg. Further, the Ki in assay [1] is ≤ 1000 nM.

Consider `CCCCOC(=O)CC(CCC)CN[C@@H](CC)C(N)=O` (some centres undefined), for which, in assay [2] (setting [3]), the ED50 turned out to be 100 µmol/kg. In the case of `CCCC1CC(=O)N(C(CC2CC2)C(N)=O)C1` (centres undefined), the Ki in assay [1] was ≤ 1000 nM.

For the molecule `CC[C@@H](C(=O)NC)N1C[C@H](CI)CC1=O`, the ED50 in assay [2] (setting [3]) amounted to 100 µmol/kg. The Ki in assay [1] is ≤ 1000 nM. Consider `CCCC1CC(=O)N(C(CCC)C(N)=O)C1` (centres undefined), for which the Ki in assay [1] was ≤ 1000 nM. Take `CCCC(CN[C@@H](CC)C(N)=O)CC(=O)OCC` (some centres undefined): the ED50 in assay [2] (setting [3]) worked out at 100 µmol/kg.

In the case of `C=C[C@H]1CC(=O)N([C@@H](CC)C(N)=O)C1`, in assay [2] (setting [3]), the ED50 turned out to be 100 µmol/kg. In addition, the inhibitory constant (Ki) in assay [1] was ≤ 1000 nM. In the case of `CCCC(CN[C@@H](CC)C(N)=O)CC(=O)OCCC12CC3CC(CC(C3)C1)C2` (some centres undefined), the ED50 in assay [2] (setting [3]) amounted to 100 µmol/kg. On to `CC[C@@H](C(N)=O)N1CC(c2cccc(Br)c2)CC1=O` (some centres undefined), for which, in assay [2] (setting [3]), the 50% effective dose (ED50) was 100 µmol/kg. Further, the Ki in assay [1] was ≤ 1000 nM. On to `CCC(C(N)=O)N1CC(CC(F)F)CC1=O` (centres undefined), for which, in assay [1], the Ki is ≤ 1000 nM. As for `CC[C@@H](C(N)=O)N1C[C@H](C=C(Br)Br)CC1=O`, the ED50 in assay [2] (setting [3]) stood at 100 µmol/kg. The Ki in assay [1] is ≤ 1000 nM. Turning to `CC[C@@H](C(N)=O)N1C[C@H](CN=[N+]=[N-])CC1=O`, the ED50 in assay [2] (setting [3]) stood at 100 µmol/kg. The inhibitory constant (Ki) in assay [1] was ≤ 1000 nM. For `CC[C@@H](C(N)=O)N1CC(c2cccs2)CC1=O` (single isomer, unassigned; diastereomer 1), in assay [2] (setting [3]), the ED50 was 100 µmol/kg. As for `CC[C@@H](C(N)=O)N1CC(c2cccs2)CC1=O` (single isomer, unassigned; diastereomer 2), the ED50 in assay [2] amounted to 100 µmol/kg. For the same molecule, the Ki in assay [1] is ≤ 1000 nM.

`CCC[C@@H]1CC(=O)N([C@@H](CC)C(N)=O)C1` [BRIVARACETAM]: the ED50 in assay [2] (setting [3]) was 100 µmol/kg. In addition, the Ki in assay [1] is ≤ 1000 nM. In the same order, the values of `CC[C@@H](C(N)=O)N1C[C@H](C=C(F)F)CC1=O` [SELETRACETAM] are 100 µmol/kg and ≤ 1000 nM.
